# Measurements reported in ChEMBL document CHEMBL1134201, “Exploring the relationship between binding modes of 9-(aminomethyl)-9,10-dihydroanthracene and cyproheptadine analogues at the 5-HT2A serotonin receptor” (Bioorg Med Chem Lett, 2001).
# Target: T1, 5-hydroxytryptamine receptor 2A (Rattus norvegicus, UniProt P14842)
# Test: Binding affinity against 5-hydroxytryptamine 2A receptor from rat forebrain using [3H]ketanserin as radioligand
# T1 sequence (P14842 whole entry): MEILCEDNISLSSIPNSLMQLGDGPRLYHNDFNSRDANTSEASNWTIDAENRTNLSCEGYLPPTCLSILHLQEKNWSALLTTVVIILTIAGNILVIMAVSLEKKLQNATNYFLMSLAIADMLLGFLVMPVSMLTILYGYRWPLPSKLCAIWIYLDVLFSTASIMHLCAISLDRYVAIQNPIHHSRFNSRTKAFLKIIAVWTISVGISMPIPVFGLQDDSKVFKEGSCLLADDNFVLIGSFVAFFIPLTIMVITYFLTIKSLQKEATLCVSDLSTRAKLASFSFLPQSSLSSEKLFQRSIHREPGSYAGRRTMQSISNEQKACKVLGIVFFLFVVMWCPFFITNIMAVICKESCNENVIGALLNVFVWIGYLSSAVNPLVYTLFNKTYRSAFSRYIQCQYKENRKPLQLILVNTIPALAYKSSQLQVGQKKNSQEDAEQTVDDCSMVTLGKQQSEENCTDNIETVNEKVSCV
row,SMILES,Ki [nM]
1,CC(=C1CCN(C)CC1)c1ccccc1,355
2,CN1CCC(=C(c2ccccc2)c2ccccc2)CC1,13

# Continued, values first:
row,Ki [nM],SMILES
1,4,CN1CCC(=C2c3ccccc3Oc3ccccc32)CC1
2,9,CN1CCC(=C2c3ccccc3CCc3ccccc32)CC1
3,199,CN1CCC(=C2c3ccccc3-c3ccccc32)CC1
4,2.5,CN1CCC(=C2c3ccccc3Sc3ccccc32)CC1 [PIMETHIXENE]

# Target: T1, 5-hydroxytryptamine receptor 2A
# Test: Binding affinity against 5-hydroxytryptamine 2A receptor expressed NIH3T3 cells using [3H]ketanserin
# Format: cell-based
row,Ki [nM],SMILES
1,65,NCC1c2ccccc2Sc2ccccc21
2,170,NCC1c2ccccc2Oc2ccccc21
3,0.7,CN1CCC(=C2c3ccccc3Cc3ccccc32)CC1
4,112,NCC1c2ccccc2CCc2ccccc21
